Measurements from patent publication US4327210A, “Thiazolylacelamide cephalosporins” (Hoffmann-La Roche Inc., priority 1978, dated 1982).
Values after ≈ are worked out from the molar mass of the structure shown.

Tests used:
[1] = tested on: Escherichia coli; assay: In vivo activity in mice infected intraperitoneally with Escherichia coli; details: sc, 96 h, read-out: CD50 (dose with which 50% of the test animals survive); mice infected i.p. with Escherichia coli; s.c. 1, 2 1/2 and 4 hours after infection; survival on fourth day; by interpolation
Description: Groups of 5 mice are infected intraperitoneally with an aqueous suspension of Escherichia coli. The test substance is administered subcutaneously in physiological common salt solution three times, i.e. 1 hour, 21/2 hours and 4 hours, after the infection. The number of surviving animals is determined on the fourth day.

[2] = tested on: Haemophilus influenzae; assay: In vitro antimicrobial activity (minimum inhibitory concentration); format: cell-based
Excerpt: (§1) In vitro activity: minimum inhibitory concentration (μg/ml)

[3] = tested on: Staphylococcus aureus; assay: as above; format: cell-based
Excerpt: as §1

[4] = tested on: Proteus mirabilis; assay: as above; format: cell-based
Excerpt: as §1

[5] = tested on: Escherichia coli; assay: as above; format: cell-based
Excerpt: as §1

[6] = tested on: Serratia marcescens; assay: as above; format: cell-based
Excerpt: as §1

[7] = tested on: Pseudomonas aeruginosa; assay: as above; format: cell-based
Excerpt: as §1

[8] = tested on: Proteus rettgeri; assay: as above; format: cell-based; details: Providencia rettgeri
Excerpt: as §1

[9] = tested on: Proteus vulgaris; assay: as above; format: cell-based
Excerpt: as §1

[10] = tested on: Klebsiella pneumoniae; assay: as above; format: cell-based
Excerpt: as §1

[11] = in vivo
[12] = Haemophilus influenzae strain 1
[13] = Haemophilus influenzae strain 2
[14] = Haemophilus influenzae strain 3
[15] = Haemophilus influenzae strain 4
[16] = Haemophilus influenzae strain 5
[17] = Haemophilus influenzae strain 6
[18] = Haemophilus influenzae strain 7
[19] = ATCC6538, Staphylococcus aureus strain ATCC 6538
[20] = Staphylococcus aureus pencillin-resistant strain
[21] = Pseudomonas aeruginosa strain 1
[22] = Pseudomonas aeruginosa strain 2
[23] = Pseudomonas aeruginosa strain 3
[24] = Pseudomonas aeruginosa strain 4
[25] = Pseudomonas aeruginosa strain 5
[26] = Pseudomonas aeruginosa strain 6
[27] = Pseudomonas aeruginosa strain 7

Row | SMILES | ED50 [1] [mg/kg] | MIC [2, 12] [µg/mL] | MIC [2, 13] [µg/mL] | MIC [2, 14] [µg/mL] | MIC [2, 15] [µg/mL] | MIC [2, 16] [µg/mL] | MIC [2, 17] [µg/mL] | MIC [2, 18] [µg/mL] | MIC [3, 19] [µg/mL] | MIC [3, 20] [µg/mL] | MIC ([4]; Proteus mirabilis strain 1) [µg/mL] | MIC ([4]; Proteus mirabilis strain 2) [µg/mL] | MIC ([5]; Escherichia coli strain 1) [µg/mL] | MIC ([5]; Escherichia coli strain 2) [µg/mL] | MIC [6] [µg/mL] | MIC [7, 21] [µg/mL] | MIC [7, 22] [µg/mL] | MIC [7, 23] [µg/mL] | MIC [7, 24] [µg/mL] | MIC [7, 25] [µg/mL] | other results
1 | CO/N=C(\C(=O)N[C@@H]1C(=O)N2C(C(=O)O)=C(CSc3nc(=O)c(O)nn3C)CS[C@H]12)c1csc(NC(=O)CCl)n1 [Product B, (6R,7R)-7-[2-[2-(2-Chloroacetamido)-4-thiazolyl]-2-(Z-methoxyimino)acetamido]-3-[[(2,5-dihydro-6-hydroxy-2-methyl-5-oxo-as-triazin-3-yl)thiol]methyl]-8-oxo-5-thia-1-azabicyclo[4.2.0]oct-2-ene-2-carboxylic acid] | 0.16 | 1.2 (≈ 1.9 µM) | 0.3 (≈ 0.475 µM) | 0.16 (≈ 0.254 µM) | 0.16 (≈ 0.254 µM) | 0.08 (≈ 0.127 µM) | 0.16 (≈ 0.254 µM) | 0.16 (≈ 0.254 µM) | 2.5 (≈ 3.96 µM) | 5 (≈ 7.92 µM) | 0.08 (≈ 0.127 µM) | 0.16 (≈ 0.254 µM) | 0.16 (≈ 0.254 µM) | 5 (≈ 7.92 µM) | 2.5 (≈ 3.96 µM) | 1.2 (≈ 1.9 µM) | > 80 | 40 (≈ 63.4 µM) | 80 (≈ 127 µM) | 80 (≈ 127 µM) | MIC [7, 26]: 80 µg/mL (≈ 127 µM); MIC [7, 27]: 80 µg/mL (≈ 127 µM); MIC [8]: 0.16 µg/mL (≈ 0.254 µM); MIC [9]: 0.16 µg/mL (≈ 0.254 µM); MIC [10]: 10 µg/mL (≈ 15.8 µM); LD50 ([11]; iv): 250 to 500 mg/kg; LD50 ([11]; po): > 5000 mg/kg; LD50 ([11]; sc): 2000 to 4000 mg/kg
2 | CO/N=C(\C(=O)N[C@@H]1C(=O)N2C(C(=O)O)=C(CSc3nc(=O)c(O)nn3C)CS[C@H]12)c1csc(N)n1 [Product A] | ≤ 0.005 | 0.08 (≈ 0.144 µM) | 0.005 (≈ 0.00902 µM) | 0.005 (≈ 0.00902 µM) | 0.005 (≈ 0.00902 µM) | 0.0025 (≈ 0.00451 µM) | 0.0025 (≈ 0.00451 µM) | 0.0025 (≈ 0.00451 µM) | 2.5 (≈ 4.51 µM) | 2.5 (≈ 4.51 µM) | ≤ 0.01 | ≤ 0.01 | 0.02 (≈ 0.0361 µM) | 0.6 (≈ 1.08 µM) | 0.08 (≈ 0.144 µM) | 0.3 (≈ 0.541 µM) | 10 (≈ 18 µM) | 2.5 (≈ 4.51 µM) | 5 (≈ 9.02 µM) | 5 (≈ 9.02 µM) | MIC [7, 26]: 10 µg/mL (≈ 18 µM); MIC [7, 27]: 5 µg/mL (≈ 9.02 µM); MIC [8]: ≤ 0.01 µg/mL; MIC [9]: ≤ 0.01 µg/mL; MIC [10]: 1.2 µg/mL (≈ 2.16 µM)
